Data: US20110182982A1, “LIPOSOME TREATMENT OF VIRAL INFECTIONS” (University of Oxford, priority 2006, published 2011)

Tests used:
CHO cells = experiment: Liposome uptake (Rh-PE) and intracellular calcein dequenching; assay type: cell-based, Chinese hamster
Experimental: The effects of different DNJ compounds on the cellular uptake and intracellular release, when encapsulated inside DCPP liposomes, was determined by diluting compounds in 80-mM calcein and incorporating Rh-PE in liposome membranes as previously described, with the final liposome composition being DOPE:CHEMS:PEG-PE:Rh-PE (DCPP-Rh, 6:4:0.3:0.1) Liposomes encapsulating calcein alone, 10-μM DNJ, 1-mM DNJ, 10-μM NB-DNJ, 1-mM NB-DNJ, 10-μM NN-DNJ, or 1-mM NN-DNJ, were incubated with CHO cells for 45 min before liposomes were removed and cells were washed twice in 1×PBS. Cells were then analyzed in a fluorometer to measure calcein dequenching (λex=490 and λem=520 nm) and rhodamine fluorescence (λex=584 and λem=612 nm). Data represent the mean±S.D. obtained from triplicates of four independent experiments, where mean rhodamine fluorescence values reflect the binding and uptake of liposomes and the mean calcein fluorescence reflects the intracellular dequenching of the dye (i.e. dye released from liposomes into intracellular compartments). Results are expressed as the percent fluorescence measured following incubation with DNJ-containing liposomes as compared to the calcein/PBS-only liposome control (=100% on the x axis).
The calculated ratio of calcein to rhodamine fluorescence is taken as a measure of the amount of aqueous marker released per cell-associated liposome, and represents the efficiency of intracellular delivery.

[1] = pH sensitivity of DCPP liposomes (calcein leakage); assay type: physicochemical; conditions: 1 mM encapsulated, pH 5.0-7.4, vs calcein only liposomes
Experimental: DCPP liposomes encapsulating 1-mM DNJ, NB-DNJ, or NN-DNJ in 80-mM calcein buffer were compared with empty (calcein only) liposomes to determine the effects of the alkyl chain of NB-DNJ and NN-DNJ on the pH-sensitivity. 10 μl of calcein-loaded DCPP liposomes (final phospholipid concentration, 5 μM) was added to 2 ml of MES-buffered saline at various pH values ranging from 5.0-7.4, and left to incubate with shaking 15 min at 37° C. Following incubation, calcein fluorescence was measured before and after the addition of Triton to a final concentration of 0.1%. Fluorescence intensities obtained at acidic pH values were corrected for the slight effect of pH on calcein fluorescence. The percentage of calcein release at each pH was calculated using the formula: % leakage=((in−I0)/(I100−I0))×100, where I0 is the fluorescence at neutral pH, In is the corrected intensity at acidic pH before the addition of Triton, and I100 is the total dequenched calcein at neutral pH.

[2] = encapsulated into DCPP liposomes
Hepatitis C virus = conditions: alone or in combination with ribavirin; cited from earlier work
[3] = 10 μM encapsulated in DCPP liposomes
[4] = 1 mM encapsulated in DCPP liposomes
[5] = encapsulated in DCPP-Rh liposomes

Compound	Efficiency (calcein/rhodamine, AU) (CHO cells; [3]) [AU]	Efficiency (calcein/rhodamine, AU) (CHO cells; [4]) [AU]	effect on calcein dequenching (intracellular release) (CHO cells; [5])	pH sensitivity / stability of DCPP liposomes [1]	cellular uptake of liposomes (CHO cells; [5])	change of ER delivery of the peptide [2]	patients in whom therapy is effective (Hepatitis C virus)
OC[C@H]1NC[C@H](O)[C@@H](O)[C@@H]1O [DNJ, deoxynojirimycin]	10.4 ± 1.8	10.8 ± 2.0	no effect	no difference in stability			
CCCCCCCCCN1C[C@H](O)[C@@H](O)[C@H](O)[C@H]1CO [NN-DNJ, N-nonyl deoxynojirimycin]	4.4 ± 1.3	3.2 ± 1.1	no effect	significant decrease in pH sensitivity	increase in cellular uptake		
CSCC[C@H](NC(=O)[C@@H](NC(=O)CNC(=O)[C@H](CC(=O)O)NC(=O)[C@H](CCSC)NC(=O)[C@@H](N)Cc1ccc(O)cc1)[C@@H](C)O)C(=O)N[C@@H](CO)C(=O)N[C@@H](CCC(N)=O)C(=O)N[C@H](C(=O)O)C(C)C [YMDGTMSQV]						reduces the ER delivery of the peptide by an order of magnitude	
interferon							up to 80%
